Results from the supplement of paper PMC10307832.

Assays:
Test in all cases: relative viability (nuclei count vs DMSO), 5 days (fraction); higher = more cells survive
[1] = system: ABC-1
How it was run: (§1)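 For relative viability, nuclei counts in treated wells were divided by those in vehicle wells. Lung cancer cell lines had been pin-tool dosed in 1536-well plates the day after seeding and cultured for 5 days, then fixed and stained in one step (final 0.05% Triton X-100, 1% formaldehyde, 1 ug/ml Hoechst) and imaged at 4×. Doses were one drug alone or a fixed anchor-drug dose plus five library-drug doses (not always all listed) in √10 steps, and values are duplicate-plate medians.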

[2] = system: CAL-12T
How it was run: as §1

[3] = system: ChaGo-K-1
How it was run: as §1

[4] = system: HCC-366
How it was run: as §1

[5] = system: HCC-78
How it was run: as §1

[6] = system: LC-2-ad
How it was run: as §1

[7] = system: LOU-NH91
How it was run: as §1

[8] = system: LU99A
How it was run: as §1

[9] = system: NCI-H1395
How it was run: as §1

[10] = system: NCI-H1651
How it was run: as §1

[11] = system: NCI-H1755
How it was run: as §1

[12] = system: NCI-H1793
How it was run: as §1

[13] = system: NCI-H1944
How it was run: as §1

[14] = system: NCI-H2087
How it was run: as §1

[15] = system: NCI-H2170
How it was run: as §1

[16] = system: NCI-H2228
How it was run: as §1

[17] = system: NCI-H2405
How it was run: as §1

[18] = system: NCI-H3122
How it was run: as §1

[19] = system: NCI-H460
How it was run: as §1

[20] = system: PC-3 [JPC-3]
How it was run: as §1

[21] = system: RERF-LC-KJ
How it was run: as §1

[22] = system: UMC-11
How it was run: as §1

Compound: O=c1cc(-c2cccc3c2Sc2ccccc2S3)oc(N2CCOCC2)c1 + O=C(CCCCCCC(=O)Nc1ccccc1)NO [Vorinostat] (partner 1 µM)
- relative viability ([1]; first compound 0.08 µM): 1.13
- relative viability ([1]; first compound 0.253 µM): 1.1
- relative viability ([1]; first compound 0.8 µM): 1.24
- relative viability ([1]; first compound 2.53 µM): 1.15
- relative viability ([1]; first compound 8 µM): 0.972
- relative viability ([2]; first compound 0.08 µM): 0.677
- relative viability ([2]; first compound 0.253 µM): 0.782
- relative viability ([2]; first compound 0.8 µM): 0.765
- relative viability ([2]; first compound 2.53 µM): 0.799
- relative viability ([2]; first compound 8 µM): 0.699
- relative viability ([3]; first compound 0.08 µM): 0.765
- relative viability ([3]; first compound 0.253 µM): 0.859
- relative viability ([3]; first compound 0.8 µM): 0.876
- relative viability ([3]; first compound 2.53 µM): 0.753
- relative viability ([3]; first compound 8 µM): 0.847
- relative viability ([4]; first compound 0.08 µM): 0.347
- relative viability ([4]; first compound 0.253 µM): 0.387
- relative viability ([4]; first compound 0.8 µM): 0.297
- relative viability ([4]; first compound 2.53 µM): 0.426
- relative viability ([4]; first compound 8 µM): 0.42
- relative viability ([5]; first compound 0.08 µM): 0.478
- relative viability ([5]; first compound 0.253 µM): 0.529
- relative viability ([5]; first compound 0.8 µM): 0.376
- relative viability ([5]; first compound 2.53 µM): 0.39
- relative viability ([5]; first compound 8 µM): 0.474
- relative viability ([6]; first compound 0.08 µM): 0.683
- relative viability ([6]; first compound 0.253 µM): 0.835
- relative viability ([6]; first compound 0.8 µM): 0.684
- relative viability ([6]; first compound 2.53 µM): 0.695
- relative viability ([6]; first compound 8 µM): 0.69
- relative viability ([7]; first compound 0.08 µM): 0.91
- relative viability ([7]; first compound 0.253 µM): 0.943
- relative viability ([7]; first compound 0.8 µM): 0.854
- relative viability ([7]; first compound 2.53 µM): 0.745
- relative viability ([7]; first compound 8 µM): 0.898
- relative viability ([8]; first compound 0.08 µM): 0.429
- relative viability ([8]; first compound 0.253 µM): 0.499
- relative viability ([8]; first compound 0.8 µM): 0.639
- relative viability ([8]; first compound 2.53 µM): 0.514
- relative viability ([8]; first compound 8 µM): 0.669
- relative viability ([9]; first compound 0.08 µM): 0.636
- relative viability ([9]; first compound 0.253 µM): 0.625
- relative viability ([9]; first compound 0.8 µM): 0.777
- relative viability ([9]; first compound 2.53 µM): 0.669
- relative viability ([9]; first compound 8 µM): 0.759
- relative viability ([10]; first compound 0.08 µM): 0.585
- relative viability ([10]; first compound 0.253 µM): 0.638
- relative viability ([10]; first compound 0.8 µM): 0.571
- relative viability ([10]; first compound 2.53 µM): 0.519
- relative viability ([10]; first compound 8 µM): 0.578
- relative viability ([11]; first compound 0.08 µM): 0.734
- relative viability ([11]; first compound 0.253 µM): 0.797
- relative viability ([11]; first compound 0.8 µM): 0.795
- relative viability ([11]; first compound 2.53 µM): 0.709
- relative viability ([11]; first compound 8 µM): 0.8
- relative viability ([12]; first compound 0.08 µM): 0.653
- relative viability ([12]; first compound 0.253 µM): 0.846
- relative viability ([12]; first compound 0.8 µM): 0.541
- relative viability ([12]; first compound 2.53 µM): 0.627
- relative viability ([12]; first compound 8 µM): 0.804
- relative viability ([13]; first compound 0.08 µM): 0.58
- relative viability ([13]; first compound 0.253 µM): 0.586
- relative viability ([13]; first compound 0.8 µM): 0.513
- relative viability ([13]; first compound 2.53 µM): 0.544
- relative viability ([13]; first compound 8 µM): 0.596
- relative viability ([14]; first compound 0.08 µM): 0.862
- relative viability ([14]; first compound 0.253 µM): 0.757
- relative viability ([14]; first compound 0.8 µM): 1.09
- relative viability ([14]; first compound 2.53 µM): 0.727
- relative viability ([14]; first compound 8 µM): 0.917
- relative viability ([15]; first compound 0.08 µM): 0.857
- relative viability ([15]; first compound 0.253 µM): 0.952
- relative viability ([15]; first compound 0.8 µM): 0.92
- relative viability ([15]; first compound 2.53 µM): 0.693
- relative viability ([15]; first compound 8 µM): 0.932
- relative viability ([16]; first compound 0.08 µM): 0.824
- relative viability ([16]; first compound 0.253 µM): 0.646
- relative viability ([16]; first compound 0.8 µM): 0.76
- relative viability ([16]; first compound 2.53 µM): 0.7
- relative viability ([16]; first compound 8 µM): 0.578
- relative viability ([17]; first compound 0.08 µM): 0.925
- relative viability ([17]; first compound 0.253 µM): 0.99
- relative viability ([17]; first compound 0.8 µM): 1.06
- relative viability ([17]; first compound 2.53 µM): 0.842
- relative viability ([17]; first compound 8 µM): 0.983
- relative viability ([18]; first compound 0.08 µM): 0.99
- relative viability ([18]; first compound 0.253 µM): 1.2
- relative viability ([18]; first compound 0.8 µM): 1.09
- relative viability ([18]; first compound 2.53 µM): 0.93
- relative viability ([18]; first compound 8 µM): 1.05
- relative viability ([19]; first compound 0.08 µM): 0.892
- relative viability ([19]; first compound 0.253 µM): 1.49
- relative viability ([19]; first compound 0.8 µM): 0.772
- relative viability ([19]; first compound 2.53 µM): 0.692
- relative viability ([19]; first compound 8 µM): 1.04
- relative viability ([20]; first compound 0.08 µM): 0.579
- relative viability ([20]; first compound 0.253 µM): 0.788
- relative viability ([20]; first compound 0.8 µM): 0.769
- relative viability ([20]; first compound 2.53 µM): 0.79
- relative viability ([20]; first compound 8 µM): 0.851
- relative viability ([21]; first compound 0.08 µM): 0.558
- relative viability ([21]; first compound 0.253 µM): 0.64
- relative viability ([21]; first compound 0.8 µM): 0.713
- relative viability ([21]; first compound 2.53 µM): 0.655
- relative viability ([21]; first compound 8 µM): 0.666
- relative viability ([22]; first compound 0.08 µM): 0.312
- relative viability ([22]; first compound 0.253 µM): 0.454
- relative viability ([22]; first compound 0.8 µM): 0.362
- relative viability ([22]; first compound 2.53 µM): 0.394
- relative viability ([22]; first compound 8 µM): 0.336
